Data published in paper PMC12152147, “DDB1 engagement defines the selectivity of S656 analogs for cyclin K degradation over CDK inhibition” (EMBO Reports, 2025).
Values after ≈ are worked out from the molar mass of the structure shown.

Tests used:
[1] = Kinetic solubility measurement (HPLC-UV); type: physicochemical; settings: aqueous buffer, kinetic from dmso stock, αMEM media, nominal 200 μM, room temperature, triplicate
Method: A 40 μL aliquot of a 10 mM DMSO stock solution of S656 was prepared and diluted in αMEM media to achieve a nominal concentration of 200 μM. The samples were incubated with stirring at 1100 rpm for 24 h at room temperature. From the incubation mixture, 20 μL was pipetted, rinsed in acetonitrile (MeCN) for 5 s, then in water for 5 s. Subsequently, 10 μL was discarded, and the remaining 10 μL was transferred to a mixture containing 10 μL of PBS, 980 μL of quenched solution, and 10 μL of DMSO. Analysis was performed using HPLC equipped with a UV-visible detector (HPLC-UV). Chromatography was conducted under reverse-phase conditions with a column temperature of 55 °C on a Waters XSelect HSS T3 column (2.5 μm, 2.1 ×50 mm). The aqueous solvent (solvent A) was ultrapure water with 0.1% formic acid, and the organic eluent (solvent B) was acetonitrile. The injection volume was 4 μL, and the flow rate was set at 0.6 mL/min.

tumor growth = tested on: tumor growth; set-up: method as in Dieter et al. (PMID34289372); settings: orally in mice, 20 mg/kg, 5 days per week; ref Dieter et al. (PMID34289372); cited from earlier work

Row | solubility kinetic at 24 h [1] [µM] | SMILES | tolerability in animals (tumor growth) | tumor growth in vivo (tumor growth)
1 | 23 (≈ 8.84 µg/mL) | CN(C)c1ccc(CC(=O)Nc2ncc(SCc3cccnc3)s2)cc1 [S656] |  | 
2 |  | Cn1cc(-n2cnc3c(NCc4nc5cc(Cl)c(Cl)cc5[nH]4)nc(N4CCOCC4)nc32)cn1 [SR4835] | well tolerated | effectively inhibited tumor growth
